Measurements reported in publication PMC9596378, “Discovery and molecular basis of subtype-selective cyclophilin inhibitors” (Nature Chemical Biology, 2022).
Several values for one entry are separate records, joined by “and”; a condition that tells them apart may be missing. Equal entries are not always repeated. Where two headings read alike, the source gives them in different places.

Key:
Test in all cases: Chymotrypsin coupled prolyl-isomerase assay
Format in all cases: biochemical
[1] = target: T1, CypG (Homo sapiens, UniProt Q13427); conditions: for CypG prolyl-isomerase assay raw dose-response value: Fig. 3b source data, replicates
T1 construct: PPIG (UniProtKB Entry Q13427: residues 1–179); His6 with thrombin site (pET28a LIC leader) (N); host or cells: E. coli BL21(DE3)
T1 sequence (Q13427 1-179): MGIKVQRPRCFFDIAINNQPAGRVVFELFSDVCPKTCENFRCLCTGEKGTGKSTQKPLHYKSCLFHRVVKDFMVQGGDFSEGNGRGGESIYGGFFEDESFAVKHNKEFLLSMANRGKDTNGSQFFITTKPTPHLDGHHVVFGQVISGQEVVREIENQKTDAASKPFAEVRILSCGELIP
Summary of the method: (§1)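 5 nM Cyp, HEPES pH 7.3/NaCl/Triton buffer, 2–3 °C; cpd 5 min, chymotrypsin 25 µM 5 min, then Suc-AAPF-AMC 5 µM in LiCl/TFE. Kinetic fluorescence 330 s. Per-well rate constants, normalized, IC50 from nonlinear fit.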

[2] = target: T2, CypH (Homo sapiens, UniProt O43447); conditions: for CypH prolyl-isomerase assay raw dose-response value: Fig. 3b source data, replicates
T2 construct: PPIH (UniProtKB Entry O43447: residues 1–177); His6 with TEV site (2BT vector leader) (N); made in house; host or cells: E. coli BL21(DE3)
T2 sequence (O43447 whole entry, the tested form may be a part): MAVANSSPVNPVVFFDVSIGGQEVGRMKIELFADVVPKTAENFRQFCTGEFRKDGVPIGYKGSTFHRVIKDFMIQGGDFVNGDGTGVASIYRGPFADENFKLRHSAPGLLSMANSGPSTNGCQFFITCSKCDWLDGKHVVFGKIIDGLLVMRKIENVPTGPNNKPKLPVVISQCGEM
Summary of the method: as §1

[3] = target: T3, CypE (Homo sapiens, UniProt Q9UNP9); conditions: for CypE prolyl-isomerase assay raw dose-response value: Fig. 3b source data, replicates; for IC50: wild-type CypE, read-out: Wild-Type Cyclophilin Prolyl Isomerase Inhibition IC50 Values, CypE
T3 construct: PPIE (UniProtKB Entry Q9UNP9: residues 131–301); host or cells: E. coli BL21(DE3)
T3 sequence (Q9UNP9 131-301): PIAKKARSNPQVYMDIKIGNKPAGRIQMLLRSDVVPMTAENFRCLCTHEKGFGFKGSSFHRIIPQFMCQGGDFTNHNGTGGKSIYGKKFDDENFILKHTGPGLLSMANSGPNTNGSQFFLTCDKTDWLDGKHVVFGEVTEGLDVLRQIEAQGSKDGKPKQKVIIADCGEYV
Summary of the method: as §1

[4] = target: T4, CypA (Homo sapiens, UniProt P62937); conditions: for CypA prolyl-isomerase assay raw dose-response value: Fig. 3b source data, replicates
T4 construct: PPIA (UniProtKB Entry P62937: residues 1–165); made in house; host or cells: E. coli BL21(DE3)
T4 sequence (P62937 whole entry, the tested form may be a part): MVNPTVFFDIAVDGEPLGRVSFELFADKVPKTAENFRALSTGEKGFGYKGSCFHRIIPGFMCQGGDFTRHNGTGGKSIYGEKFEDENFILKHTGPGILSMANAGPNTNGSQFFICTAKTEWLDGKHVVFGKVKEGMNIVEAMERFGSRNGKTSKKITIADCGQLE
Summary of the method: as §1

[5] = target: T5, CypC (Homo sapiens, UniProt P45877); conditions: for CypC prolyl-isomerase assay raw dose-response value: Fig. 3b source data, replicates; for IC50: wild-type CypC, read-out: Wild-Type Cyclophilin Prolyl Isomerase Inhibition IC50 Values, CypC
T5 construct: PPIC (UniProtKB Entry P45877: residues 24–212); host or cells: E. coli BL21(DE3)
T5 sequence (P45877 24-212): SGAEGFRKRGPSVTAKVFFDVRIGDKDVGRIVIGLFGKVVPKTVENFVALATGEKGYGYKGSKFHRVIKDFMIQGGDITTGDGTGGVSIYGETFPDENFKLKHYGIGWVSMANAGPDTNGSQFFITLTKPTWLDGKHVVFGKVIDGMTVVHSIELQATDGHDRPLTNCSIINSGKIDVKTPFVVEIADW
Summary of the method: as §1

[6] = wild-type CypG, read-out: Wild-Type Cyclophilin Prolyl Isomerase Inhibition IC50 Values, CypG
[7] = wild-type CypH, read-out: Wild-Type Cyclophilin Prolyl Isomerase Inhibition IC50 Values, CypH
[8] = wild-type CypA, read-out: Wild-Type Cyclophilin Prolyl Isomerase Inhibition IC50 Values, CypA

## NCCOCCNC(=O)[C@@H]1CCNC(=O)/C=C/C(=O)N2CCC[C@](Cc3ccccc3)(C2)C(=O)N[C@@H](Cc2ccc(-c3ccc(C#CC(=O)O)cc3)cc2)C(=O)NCc2ccccc2CC(=O)N1 [Compound B25]
[1]; Dose 0.0228624 µM
  CypG prolyl-isomerase assay raw dose-response value: 0.06249 and 0.05548 and 0.0638
[1]; Dose 0.0685871 µM
  CypG prolyl-isomerase assay raw dose-response value: 0.05565 and 0.04551* and 0.05901
[1]; Dose 0.205761 µM
  CypG prolyl-isomerase assay raw dose-response value: 0.04568 and 0.0619
[1]; Dose 0.617284 µM
  CypG prolyl-isomerase assay raw dose-response value: 0.03977 and 0.04815 and 0.06466
[1]; Dose 1.85185 µM
  CypG prolyl-isomerase assay raw dose-response value: 0.05698 and 0.05304 and 0.05804
[1]; Dose 5.55556 µM
  CypG prolyl-isomerase assay raw dose-response value: 0.0448 and 0.05687 and 0.05139
[1]; Dose 16.6667 µM
  CypG prolyl-isomerase assay raw dose-response value: 0.04193 and 0.04196 and 0.0448
[1]; Dose 50 µM
  CypG prolyl-isomerase assay raw dose-response value: 0.03044 and 0.02213 and 0.02754
[1]; prolyl-isomerase inhibition, 5 nM cyclophilin, read-out: IC50 CypG
  IC50: ~25 µM
[1]; [6]
  IC50: 25 µM
[2]; Dose 0.0228624 µM
  CypH prolyl-isomerase assay raw dose-response value: 0.04387 and 0.03667 and 0.04369
[2]; Dose 0.0685871 µM
  CypH prolyl-isomerase assay raw dose-response value: 0.04493 and 0.03523 and 0.04571
[2]; Dose 0.205761 µM
  CypH prolyl-isomerase assay raw dose-response value: 0.04732 and 0.03749
[2]; Dose 0.617284 µM
  CypH prolyl-isomerase assay raw dose-response value: 0.04296 and 0.03867 and 0.04263
[2]; Dose 1.85185 µM
  CypH prolyl-isomerase assay raw dose-response value: 0.0451 and 0.03462 and 0.04053
[2]; Dose 5.55556 µM
  CypH prolyl-isomerase assay raw dose-response value: 0.04418 and 0.03887 and 0.03972
[2]; Dose 16.6667 µM
  CypH prolyl-isomerase assay raw dose-response value: 0.03817 and 0.03665 and 0.03617
[2]; Dose 50 µM
  CypH prolyl-isomerase assay raw dose-response value: 0.02975 and 0.02514 and 0.02678
[2]; prolyl-isomerase inhibition, 5 nM cyclophilin, read-out: IC50 CypH
  IC50: ~50 µM
[2]; [7]
  IC50: 50 µM
[3]; Dose 0.000457247 µM
  CypE prolyl-isomerase assay raw dose-response value: 0.09478 and 0.08516 and 0.1307
[3]; Dose 0.00137174 µM
  CypE prolyl-isomerase assay raw dose-response value: 0.1073 and 0.09145 and 0.116
[3]; Dose 0.00411523 µM
  CypE prolyl-isomerase assay raw dose-response value: 0.07586 and 0.07841
[3]; Dose 0.0123457 µM
  CypE prolyl-isomerase assay raw dose-response value: 0.04723 and 0.04807 and 0.05181
[3]; Dose 0.037037 µM
  CypE prolyl-isomerase assay raw dose-response value: 0.02767 and 0.0265 and 0.02701
[3]; Dose 0.111111 µM
  CypE prolyl-isomerase assay raw dose-response value: 0.01749 and 0.01613 and 0.01666
[3]; Dose 0.333333 µM
  CypE prolyl-isomerase assay raw dose-response value: 0.01375 and 0.01292 and 0.01229
[3]; Dose 1 µM
  CypE prolyl-isomerase assay raw dose-response value: 0.01434 and 0.0116 and 0.01112
[3]
  IC50: 0.009 µM
[4]; CypA column within the mutant section (comparator for CypA E81S/K82R), read-out: Mutant Cyclophilin Prolyl Isomerase Inhibition IC50 Values, CypA
  IC50: 37 nM
[4]; Dose 0.00457247 µM
  CypA prolyl-isomerase assay raw dose-response value: 0.1146 and 0.097 and 0.1434
[4]; Dose 0.0137174 µM
  CypA prolyl-isomerase assay raw dose-response value: 0.07936 and 0.08714 and 0.118
[4]; Dose 0.0411523 µM
  CypA prolyl-isomerase assay raw dose-response value: 0.05569 and 0.06344 and 0.07261
[4]; Dose 0.123457 µM
  CypA prolyl-isomerase assay raw dose-response value: 0.03132 and 0.03338 and 0.03777
[4]; Dose 0.37037 µM
  CypA prolyl-isomerase assay raw dose-response value: 0.02003 and 0.0199 and 0.02096
[4]; Dose 1.11111 µM
  CypA prolyl-isomerase assay raw dose-response value: 0.015 and 0.01431 and 0.01411
[4]; Dose 3.33333 µM
  CypA prolyl-isomerase assay raw dose-response value: 0.01402 and 0.01221 and 0.01255
[4]; Dose 10 µM
  CypA prolyl-isomerase assay raw dose-response value: 0.01563 and 0.01147 and 0.01176
[4]; prolyl-isomerase inhibition, 5 nM cyclophilin, read-out: IC50 CypA
  IC50: 37 ± 7 nM
[4]; [8]
  IC50: 37 nM
[5]; Dose 0.0228624 µM
  CypC prolyl-isomerase assay raw dose-response value: 0.03634 and 0.03032 and 0.04283
[5]; Dose 0.0685871 µM
  CypC prolyl-isomerase assay raw dose-response value: 0.03426 and 0.03095 and 0.03961
[5]; Dose 0.205761 µM
  CypC prolyl-isomerase assay raw dose-response value: 0.03174 and 0.03534
[5]; Dose 0.617284 µM
  CypC prolyl-isomerase assay raw dose-response value: 0.02955 and 0.03116 and 0.0299
[5]; Dose 1.85185 µM
  CypC prolyl-isomerase assay raw dose-response value: 0.02445 and 0.02477 and 0.02432
[5]; Dose 5.55556 µM
  CypC prolyl-isomerase assay raw dose-response value: 0.0192 and 0.01832 and 0.02111
[5]; Dose 16.6667 µM
  CypC prolyl-isomerase assay raw dose-response value: 0.016 and 0.01339 and 0.01312
[5]; Dose 50 µM
  CypC prolyl-isomerase assay raw dose-response value: 0.01835 and 0.01198 and 0.01251
[5]
  IC50: 1800 nM

## NCCCc1ccc(-c2ccc(C[C@@H]3NC(=O)[C@]4(Cc5ccccc5)CCCN(C4)C(=O)/C=C/C(=O)NCC[C@@H](C(=O)NCCOCCN)NC(=O)Cc4ccccc4CNC3=O)cc2)cc1 [Compound B32]
[1]; [6]
  IC50: 11 µM
[2]; [7]
  IC50: > 50 µM
[3]
  IC50: 7 µM
[4]; [8]
  IC50: 8000 nM
[5]
  IC50: 1200 nM
